Results from patent US12139520B2 (priority 2020, dated 2024).
Numbered stars: 1 amine (or outer) side, 2 acyl side, 3 side chain; on linkers, the order of the positions; unused ones are H or OH. Bridge positions count the residues as written; N and C are the ends. Square brackets hold non-standard residues; d marks the D form. Side chains are listed from the residue outwards. Peptide text beside a SMILES is read from it. * marks the point of attachment. C20 diacid = O=C(O)CCCCCCCCCCCCCCCCCCC(=O)*; γGlu = O=C(O)[C@H](CCC(=O)[*:2])N[*:1]; Hyp = O=C(O)[C@@H]1C[C@@H](O)CN1; AEEA = NCCOCCOCC(=O)O

What was measured:
hAMY3 receptor = molecular target: T1, hAMY3 receptor (Homo sapiens, UniProt O60896+P30988); experiment: cAMP assay for in vitro receptor activation, hAMY3-R; type: cell-based; conditions: cAMP assay, hAMY3 receptor; read-out: hAMY3R EC50
T1 sequence (P30988 25-474): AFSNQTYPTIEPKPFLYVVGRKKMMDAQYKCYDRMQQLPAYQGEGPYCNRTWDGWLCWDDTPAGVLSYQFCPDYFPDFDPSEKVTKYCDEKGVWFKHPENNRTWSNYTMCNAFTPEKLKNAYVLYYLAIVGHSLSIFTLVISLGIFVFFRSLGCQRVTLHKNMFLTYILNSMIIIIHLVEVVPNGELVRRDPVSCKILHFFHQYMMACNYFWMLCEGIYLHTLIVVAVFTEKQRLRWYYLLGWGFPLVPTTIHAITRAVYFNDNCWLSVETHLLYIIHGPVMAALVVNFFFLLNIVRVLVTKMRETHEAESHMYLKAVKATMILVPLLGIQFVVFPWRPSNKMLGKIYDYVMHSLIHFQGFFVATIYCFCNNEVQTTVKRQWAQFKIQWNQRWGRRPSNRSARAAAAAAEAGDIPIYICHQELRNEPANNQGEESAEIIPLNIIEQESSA
T1 sequence (O60896 24-148 partner): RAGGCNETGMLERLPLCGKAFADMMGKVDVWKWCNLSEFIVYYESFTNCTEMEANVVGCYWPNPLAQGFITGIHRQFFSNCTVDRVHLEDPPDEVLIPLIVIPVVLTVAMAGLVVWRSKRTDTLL
Procedure, shortened: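 Thawed cells from a sub-cloned monoclonal hAMY3-overexpressing line are plated in DPBS containing 0.05% casein and 0.5 mM IBMX. Test compounds are added immediately at graded doses for 30 min at room temperature. Reagents for cAMP detection are then added, and TR-FRET is recorded after one hour.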

hAM1 receptor = hAM1 receptor (Homo sapiens, UniProt O60895+Q16602); experiment: cAMP assay for in vitro receptor activation, hAM1-R; type: cell-based; conditions: cAMP assay, hAM1 receptor; read-out: hAM1R EC50
Procedure, shortened: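 Receptor activation, read as cAMP, was assessed in thawed cells of a monoclonal hAM1-overexpressing stable line, plated at 8000 cells/well in DPBS supplemented with 0.05% casein and 0.5 mM IBMX.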

Chain of hAM1 receptor (Q16602 23-461): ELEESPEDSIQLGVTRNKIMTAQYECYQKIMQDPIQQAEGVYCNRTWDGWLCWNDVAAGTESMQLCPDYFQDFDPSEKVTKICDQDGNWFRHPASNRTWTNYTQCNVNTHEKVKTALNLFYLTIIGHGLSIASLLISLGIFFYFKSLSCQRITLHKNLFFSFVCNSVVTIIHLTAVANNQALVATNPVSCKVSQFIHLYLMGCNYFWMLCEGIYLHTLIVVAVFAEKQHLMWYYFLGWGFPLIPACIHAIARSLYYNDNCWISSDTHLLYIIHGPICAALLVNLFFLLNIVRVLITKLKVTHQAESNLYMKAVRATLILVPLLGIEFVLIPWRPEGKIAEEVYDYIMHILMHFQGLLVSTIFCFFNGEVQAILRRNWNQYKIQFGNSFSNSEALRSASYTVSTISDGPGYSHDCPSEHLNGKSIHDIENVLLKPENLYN
Chain of hAM1 receptor (O60895 43-175 partner): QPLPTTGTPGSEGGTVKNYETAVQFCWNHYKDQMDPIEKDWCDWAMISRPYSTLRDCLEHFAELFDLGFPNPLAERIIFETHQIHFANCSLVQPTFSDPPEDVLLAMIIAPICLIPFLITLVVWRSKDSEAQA

Structure (SMILES) | EC50 (hAMY3 receptor) [nM] | EC50 (hAM1 receptor) [nM]
CC[C@H](C)[C@H](NC(=O)[C@H](CCC(N)=O)NC(=O)[C@H](Cc1c[nH]cn1)NC(=O)[C@H](C)NC(=O)[C@H](CC(C)C)NC(=O)[C@H](CCCNC(=N)N)NC(=O)[C@H](CCC(N)=O)NC(=O)[C@@H](NC(=O)[C@@H](NC(=O)[C@@H]1CSSC[C@H](NC(=O)[C@H](CCCCN)NC(=O)CC[C@H](NC(=O)CCCCCCCCCCCCCCCCCCC(=O)O)C(=O)O)C(=O)N[C@@H](CC(N)=O)C(=O)N[C@@H]([C@@H](C)O)C(=O)N[C@@H](C)C(=O)N[C@@H]([C@@H](C)O)C(=O)N1)[C@@H](C)O)C(C)C)C(=O)N[C@@H](C)C(=O)N[C@@H](CCC(N)=O)C(=O)N[C@@H](Cc1ccccc1)C(=O)N[C@H](C(=O)N[C@@H](CC(=O)O)C(=O)N[C@@H](CCCCN)C(=O)N[C@@H](CC(N)=O)C(=O)N[C@@H](CCCCN)C(=O)N[C@@H](CC(=O)O)C(=O)N[C@@H](CC(N)=O)C(=O)N[C@H](C(=O)N[C@@H](C)C(=O)N1CCC[C@H]1C(=O)N1CCC[C@H]1C(=O)N[C@H](C(=O)N[C@@H](CC(N)=O)C(=O)N[C@H](C(=O)NCC(=O)N[C@@H](CO)C(=O)N[C@@H](CC(N)=O)C(=O)NCC(=O)N1C[C@H](O)C[C@H]1C(N)=O)C(C)C)[C@@H](C)O)C(C)C)[C@@H](C)O [compound 87] ({C20 diacid-γGlu}-KCNTATCTVQRLAHQIAQFTDKNKDNVAPPTNVGSNG[Hyp]-NH2; disulfide 2-7) | 0.015 | > 5000
CC[C@H](C)[C@H](NC(=O)[C@H](CCC(N)=O)NC(=O)[C@H](Cc1c[nH]cn1)NC(=O)[C@H](C)NC(=O)[C@H](CC(C)C)NC(=O)[C@H](CCCNC(=N)N)NC(=O)[C@H](CCC(N)=O)NC(=O)[C@@H](NC(=O)[C@@H](NC(=O)[C@@H]1CSSC[C@H](NC(=O)[C@H](CCCCN)NC(=O)CC[C@H](NC(=O)CCCCCCCCCCCCCCCCCCC(=O)O)C(=O)O)C(=O)N[C@@H](CC(N)=O)C(=O)N[C@@H]([C@@H](C)O)C(=O)N[C@@H](CO)C(=O)N[C@@H]([C@@H](C)O)C(=O)N1)[C@@H](C)O)C(C)C)C(=O)N[C@@H](C)C(=O)N[C@@H](CCC(N)=O)C(=O)N[C@@H](Cc1ccccc1)C(=O)N[C@H](C(=O)N[C@@H](CC(=O)O)C(=O)N[C@@H](CCCCN)C(=O)N[C@@H](CC(=O)O)C(=O)N[C@@H](CCCCN)C(=O)N[C@@H](CC(=O)O)C(=O)N1CCC[C@H]1C(=O)N[C@H](C(=O)N[C@@H](C)C(=O)N1CCC[C@H]1C(=O)N1CCC[C@H]1C(=O)N[C@H](C(=O)N[C@@H](CC(N)=O)C(=O)N[C@H](C(=O)NCC(=O)N[C@@H](CO)C(=O)N[C@@H](CC(N)=O)C(=O)NCC(=O)N1C[C@H](O)C[C@H]1C(N)=O)C(C)C)[C@@H](C)O)C(C)C)[C@@H](C)O [compound 88] ({C20 diacid-γGlu}-KCNTSTCTVQRLAHQIAQFTDKDKDPVAPPTNVGSNG[Hyp]-NH2; disulfide 2-7) | 0.015 | > 5000
CC[C@H](C)[C@H](NC(=O)[C@H](CCC(N)=O)NC(=O)[C@H](CCC(=O)O)NC(=O)[C@H](C)NC(=O)[C@H](CC(C)C)NC(=O)[C@H](CCCNC(=N)N)NC(=O)[C@H](CCC(N)=O)NC(=O)[C@@H](NC(=O)[C@@H](NC(=O)[C@@H]1CSSC[C@H](NC(=O)[C@@H](N)CCCCN)C(=O)N[C@@H](CC(N)=O)C(=O)N[C@@H]([C@@H](C)O)C(=O)N[C@@H](C)C(=O)N[C@@H]([C@@H](C)O)C(=O)N1)[C@@H](C)O)C(C)C)C(=O)N[C@@H](Cc1ccc(O)cc1)C(=O)N[C@@H](CCC(N)=O)C(=O)N[C@@H](Cc1ccccc1)C(=O)N[C@@H](CCCCNC(=O)COCCOCCNC(=O)COCCOCCNC(=O)CC[C@H](NC(=O)CCCCCCCCCCCCCCCCCCC(=O)O)C(=O)O)C(=O)N[C@@H](CC(=O)O)C(=O)N[C@@H](CCCCN)C(=O)N[C@@H](CC(=O)O)C(=O)N[C@@H](CCCCN)C(=O)N[C@@H](CC(=O)O)C(=O)N[C@@H](CC(N)=O)C(=O)N[C@H](C(=O)N[C@@H](C)C(=O)N1CCC[C@H]1C(=O)N1CCC[C@H]1C(=O)N[C@H](C(=O)N[C@@H](CC(N)=O)C(=O)N[C@H](C(=O)NCC(=O)N[C@@H](CO)C(=O)N[C@@H](CC(N)=O)C(=O)NCC(=O)N1C[C@H](O)C[C@H]1C(N)=O)C(C)C)[C@@H](C)O)C(C)C [compound 89] (H-KCNTATCTVQRLAEQIYQFK([AEEA-AEEA-γGlu-C20 diacid])DKDKDNVAPPTNVGSNG[Hyp]-NH2; disulfide 2-7; N-terminus assumed) | 0.015 | > 5000
CC[C@H](C)[C@H](NC(=O)[C@H](CCC(N)=O)NC(=O)[C@H](Cc1c[nH]cn1)NC(=O)[C@H](C)NC(=O)[C@H](CC(C)C)NC(=O)[C@H](CCCNC(=N)N)NC(=O)[C@H](CCC(N)=O)NC(=O)[C@@H](NC(=O)[C@@H](NC(=O)[C@@H]1CSSC[C@H](NC(=O)[C@H](CCCCN)NC(=O)CC[C@H](NC(=O)CCCCCCCCCCCCCCCCCCC(=O)O)C(=O)O)C(=O)N[C@@H](CC(N)=O)C(=O)N[C@@H]([C@@H](C)O)C(=O)N[C@@H](C)C(=O)N[C@@H]([C@@H](C)O)C(=O)N1)[C@@H](C)O)C(C)C)C(=O)N[C@@H](C)C(=O)N[C@@H](CCC(N)=O)C(=O)N[C@@H](Cc1ccccc1)C(=O)N[C@@H](Cc1ccc(O)cc1)C(=O)N[C@@H](CC(=O)O)C(=O)N[C@@H](CCCCN)C(=O)N[C@@H](CC(=O)O)C(=O)N[C@@H](CCCCN)C(=O)N[C@@H](CC(=O)O)C(=O)N[C@@H](CC(N)=O)C(=O)N[C@H](C(=O)N[C@@H](C)C(=O)N1CCC[C@H]1C(=O)N1CCC[C@H]1C(=O)N[C@H](C(=O)N[C@@H](CC(N)=O)C(=O)N[C@H](C(=O)NCC(=O)N[C@@H](CO)C(=O)N[C@@H](CC(N)=O)C(=O)NCC(=O)N1C[C@H](O)C[C@H]1C(N)=O)C(C)C)[C@@H](C)O)C(C)C [compound 94] ({C20 diacid-γGlu}-KCNTATCTVQRLAHQIAQFYDKDKDNVAPPTNVGSNG[Hyp]-NH2; disulfide 2-7) | 0.016 | > 5000
CC[C@H](C)[C@H](NC(=O)[C@H](CCC(N)=O)NC(=O)[C@H](Cc1c[nH]cn1)NC(=O)[C@H](C)NC(=O)[C@H](CC(C)C)NC(=O)[C@H](CCCNC(=N)N)NC(=O)[C@H](CCC(N)=O)NC(=O)[C@@H](NC(=O)[C@@H](NC(=O)[C@@H]1CSSC[C@H](NC(=O)[C@H](CCCCN)NC(=O)CC[C@H](NC(=O)CCCCCCCCCCCCCCCCCCC(=O)O)C(=O)O)C(=O)N[C@@H](CC(N)=O)C(=O)N[C@@H]([C@@H](C)O)C(=O)N[C@@H](C)C(=O)N[C@@H]([C@@H](C)O)C(=O)N1)[C@@H](C)O)C(C)C)C(=O)N[C@@H](C)C(=O)N[C@@H](CCC(N)=O)C(=O)N[C@@H](Cc1ccccc1)C(=O)N[C@H](C(=O)N[C@@H](CC(N)=O)C(=O)N[C@@H](CCCCN)C(=O)N[C@@H](CC(=O)O)C(=O)N[C@@H](CCCCN)C(=O)N[C@@H](CC(=O)O)C(=O)N[C@@H](CC(N)=O)C(=O)N[C@H](C(=O)N[C@@H](C)C(=O)N1CCC[C@H]1C(=O)N1CCC[C@H]1C(=O)N[C@H](C(=O)N[C@@H](CC(N)=O)C(=O)N[C@H](C(=O)NCC(=O)N[C@@H](CO)C(=O)N[C@@H](CC(N)=O)C(=O)NCC(=O)N1C[C@H](O)C[C@H]1C(N)=O)C(C)C)[C@@H](C)O)C(C)C)[C@@H](C)O [compound 95] ({C20 diacid-γGlu}-KCNTATCTVQRLAHQIAQFTNKDKDNVAPPTNVGSNG[Hyp]-NH2; disulfide 2-7) | 0.016 | > 5000
CC[C@H](C)[C@H](NC(=O)[C@H](CCC(N)=O)NC(=O)[C@H](CCC(=O)O)NC(=O)[C@H](C)NC(=O)[C@H](CC(C)C)NC(=O)[C@H](CCCNC(=N)N)NC(=O)[C@H](CCC(N)=O)NC(=O)[C@@H](NC(=O)[C@@H](NC(=O)[C@@H]1CSSC[C@H](NC(=O)[C@H](CCCCN)NC(=O)CC[C@H](NC(=O)CCCCCCCCCCCCCCCCCCC(=O)O)C(=O)O)C(=O)N[C@@H](CC(N)=O)C(=O)N[C@@H]([C@@H](C)O)C(=O)N[C@@H](C)C(=O)N[C@@H]([C@@H](C)O)C(=O)N1)[C@@H](C)O)C(C)C)C(=O)N[C@@H](Cc1ccc(O)cc1)C(=O)N[C@@H](CCC(N)=O)C(=O)N[C@@H](Cc1ccccc1)C(=O)N[C@H](C(=O)N[C@@H](CC(=O)O)C(=O)N[C@@H](CCCCN)C(=O)N[C@@H](CC(=O)O)C(=O)N[C@@H](CCCCN)C(=O)N[C@@H](CC(=O)O)C(=O)N[C@@H](CC(N)=O)C(=O)N[C@H](C(=O)N[C@@H](C)C(=O)N1CCC[C@H]1C(=O)N1CCC[C@H]1C(=O)N[C@H](C(=O)N[C@@H](CC(N)=O)C(=O)N[C@H](C(=O)NCC(=O)N[C@@H](CO)C(=O)N[C@@H](CC(N)=O)C(=O)N[C@H](C(=O)N1C[C@H](O)C[C@H]1C(N)=O)[C@@H](C)O)C(C)C)[C@@H](C)O)C(C)C)[C@@H](C)O [compound 96] ({C20 diacid-γGlu}-KCNTATCTVQRLAEQIYQFTDKDKDNVAPPTNVGSNT[Hyp]-NH2; disulfide 2-7) | 0.016 | > 5000
